For test [1], the system named is MIA PaCa-2-AMGR drug-resistant cell line. The test is described as follows: MIA PaCa-2-AMGR drug-resistant cell proliferation inhibitory activity test. The test is classed as cell-based. Particulars: MIA PaCa-2-AMGR drug-resistant cells, 3 days incubation, CellTiter-Glo. In outline:
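Viability was read by CellTiter-Glo luminescence after 3 days of compound exposure (8 points, 5-fold serial dilution), with IC50 derived relative to untreated control. Cells: AMG510-resistant MIA PaCa-2 (selected stepwise to 1 μM AMG510), 4×10^3/well, DMEM + 10% FBS + 2.5% horse serum, 37° C.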
On the technique in general: Cellular ATP, detected with luciferase, serves as a proxy for viable cell number.

For test [2], the system named is NCI-H358 cells (KRAS G12C mutant). Put plainly: NCI-H358 cell proliferation inhibition (CellTiter-Glo). The test is classed as cell-based. Particulars: read-out: NCI-H358 (IC50).
The mark [3] stands for this setting: Homo sapiens, NCI-H358, 72 h, H358 cells (G12C mutation), 3 days, Table 6.

Molecules are shown by their SMILES. pIC50: −log10 of the molar value. Where two headings read alike, the source gives them in different places.

`COc1ncc(-c2ccc3ncnc(N4CCN(C(=O)/C=C/C(C)=O)CC4)c3c2)cc1NS(=O)(=O)c1ccc(F)cc1F` [Example 6, (E)-2,4-difluoro-N-(2-methoxy-5-(4-(4-(4-oxopent-2-enoyl)piperazin-1-yl)quinazoline-6-yl)pyridin-3-yl)benzenesulfonamide]: the figures for the pIC50 in test [1] (72 h) and in test [2] (setting [3]) were 7.31 and 7.74, respectively.
The matching figures for `C=CC(=O)N1CCN(c2ncnc3ccc(-c4cnc(OC)c(NS(=O)(=O)c5ccc(F)cc5F)c4)cc23)[C@@H](C)C1` [Example 7, (S)—N-(5-(4-(4-acryloyl-2-methylpiperazin-1-yl)quinazolin-6-yl)-2-methoxypyridin-3-yl)-2,4-difluorobenzenesulfonamide]: 6.65 and 7.36.
The matching figures for `COc1ncc(-c2ccc3ncnc(N4CCN(C(=O)/C=C/n5ccnn5)CC4)c3c2)cc1NS(=O)(=O)c1ccc(F)cc1F` [Example 10, (E)-N-(5-(4-(4-(3-(1H-1,2,3-triazol-1-yl)acryloyl)piperazin-1-yl)quinazolin-6-yl)-2-methoxypyridin-3-yl)-2,4-difluorobenzenesulfonamide]: 6.65 and 7.61.
For `COc1ncc(-c2ccc3ncnc(N4C[C@@H](C)N(C(=O)/C=C/C(C)=O)C[C@@H]4C)c3c2)cc1NS(=O)(=O)c1ccc(F)cc1F` [Example 15, N-(5-(4-((2S,5R)-2,5-dimethyl-4-((E)-4-oxopent-2-enoyl)piperazin-1-yl)quinazolin-6-yl)-2-methoxypyridin-3-yl)-2,4-difluorobenzenesulfonamide], the pIC50 (commonly −log10 of the IC50, conventionally taken in molar units) in test [1] (72 h) is 6.61; in test [2] (setting [3]), 7.70.
As to `CCCC(=O)/C=C/C(=O)N1CCN(c2ncnc3ccc(-c4cnc(OC)c(NS(=O)(=O)c5ccc(F)cc5F)c4)cc23)CC1` [Example 17, (E)-2,4-difluoro-N-(2-methoxy-5-(4-(4-(4-oxohept-2-enoyl)piperazin-1-yl)quinazolin-6-yl)pyridin-3-yl)benzenesulfonamide], the pIC50 in test [1] (72 h) is 6.97; in test [2] (setting [3]), 7.46.
In the same order, the values of `COc1ncc(-c2ccc3ncnc(N4CCC5(CC4)CN(C(=O)/C=C/C(C)=O)C5)c3c2)cc1NS(=O)(=O)c1ccc(F)cc1F` [Example 20, (E)-2,4-difluoro-N-(2-methoxy-5-(4-(2-(4-oxopent-2-enoyl)-2,7-diazaspiro[3.5]nonan-7-yl)quinazolin-6-yl)pyridin-3-yl)benzenesulfonamide] are 6.95 and 7.58.
On to `COc1ncc(-c2ccc3ncnc(N4CCN(C(=O)/C=C/C(C)=O)CC4)c3c2)cc1NS(=O)(=O)c1c(F)cccc1F` [Example 22, (E)-2,6-difluoro-N-(2-methoxy-5-(4-(4-(4-oxopent-2-enoyl)piperazin-1-yl)quinazolin-6-yl)pyridin-3-yl)benzenesulfonamide], for which the pIC50 in test [1] (72 h) is 7.12; in test [2] (setting [3]), 7.63.
On to `COc1ncc(-c2ccc3ncnc(N4CCC5(CN(C(=O)/C=C/C(C)=O)C5)C4)c3c2)cc1NS(=O)(=O)c1c(F)cccc1F` [Example 42], for which the results for the pIC50 in test [1] and in test [2] were 6.73 and 7.10, respectively.
In the case of `COc1ncc(-c2ccc3ncnc(N4CCN(C(=O)/C=C/C(C)=O)C[C@@H]4C)c3c2)cc1NS(=O)(=O)c1c(F)cccc1F` [Example 46, (S,E)-2,6-difluoro-N-(2-methoxy-5-(4-(2-methyl-4-(4-oxopent-2-enoyl)piperazin-1-yl)quinazolin-6-yl)pyridin-3-yl) benzenesulfonamide], the pIC50 in test [1] (72 h) is 7.11; in test [2] (setting [3]), 7.52.
Consider `COc1ncc(-c2ccc3ncnc(N4CCC5(CC4)CN(C(=O)/C=C/C(C)=O)C5)c3c2)cc1NS(=O)(=O)c1c(F)cccc1F` [Example 49, (E)-2,6-difluoro-N-(2-methoxy-5-(4-(2-(4-oxopent-2-enoyl)-2,7-diazaspiro[3.5]nonan-7-yl)quinazolin-6-yl)pyridin-3-yl) benzenesulfonamide], for which the pIC50 in test [1] (72 h) was 7.20; in test [2] (setting [3]), 7.49.
Take `COc1ncc(-c2ccc3ncnc(N4C[C@@H](C)N(C(=O)/C=C/C(C)=O)C[C@@H]4C)c3c2)cc1NS(=O)(=O)c1c(F)cccc1F` [Example 51, N-(5-(4-((2S,5R)-2,5-dimethyl-4-((E)-4-oxopent-2-enoyl)piperazin-1-yl)quinazolin-6-yl)-2-methoxypyridin-3-yl)-2,6-difluorobenzene-sulfonamide]: the pIC50 was 6.74 in test [1] (72 h) and 7.31 in test [2] (setting [3]).
The matching figures for `COc1ncc(-c2ccc3ncnc(N4CCN(C5CN(C(=O)/C=C/C(C)=O)C5)CC4)c3c2)cc1NS(=O)(=O)c1ccc(F)cc1F` [Example 56, (E)-2,4-difluoro-N-(2-methoxy-5-(4-(4-(1-(4-oxopent-2-enoyl)azetidin-3-yl)piperazin-1-yl)quinazolin-6-yl)pyridin-3-yl)benzenesulfon-amide]: 6.94 and 7.16.
The matching figures for `COc1ncc(-c2ccc3ncnc(N4CCC5(CC=CC5=O)CC4)c3c2)cc1NS(=O)(=O)c1ccc(F)cc1F` [Example 70, 2,4-difluoro-N-(2-methoxy-5-(4-(1-oxo-8-azaspiro[4,5]dec-2-en-8-yl)quinazolin-6-yl)pyridin-3-yl)benzenesulfonamide]: 6.86 and 7.23.
In the same order, the values of `COc1ncc(-c2ccc3ncnc(N4CCN(C(=O)/C=C/C(C)=O)CC4)c3c2)cc1NS(=O)(=O)c1cccc(F)c1F` [Example 90, (E)-2,3-difluoro-N-(2-methoxy-5-(4-(4-(4-oxopent-2-enoyl)piperazin-1-yl)quinazolin-6-yl)pyridin-3-yl)benzenesulfonamide] are 6.98 and 7.26.
Consider `COc1ncc(-c2ccc3ncnc(N4CCN(C(=O)/C=C/C(C)=O)CC4)c3c2)cc1NS(=O)(=O)c1ccccc1F` [Example 91, (E)-2-fluoro-N-(2-methoxy-5-(4-(4-(4-oxopent-2-enoyl)piperazin-1-yl)quinazolin-6-yl)pyridin-3-yl)benzenesulfonamide], for which the results for the pIC50 in test [1] (72 h) and in test [2] (setting [3]) were 7.10 and 7.75, respectively.
Regarding `COc1ncc(-c2ccc3ncnc(N4CCN(C(=O)/C=C/C(C)=O)CC4)c3c2)cc1NS(=O)(=O)c1ccc(F)cc1` [Example 92, (E)-4-fluoro-N-(2-methoxy-5-(4-(4-(4-oxopent-2-enoyl)piperazin-1-yl)quinazolin-6-yl)pyridin-3-yl)benzenesulfonamide], the values for the pIC50 in test [1] (72 h) and in test [2] (setting [3]) were 7.24 and 7.78, respectively.
In the same order, the values of `COc1ncc(-c2ccc3ncnc(N4CCN(C(=O)/C=C/C(C)=O)CC4)c3c2)cc1NS(=O)(=O)c1ccccc1C` [Example 93, (E)-N-(2-methoxy-5-(4-(4-(4-oxopent-2-enoyl)piperazin-1-yl)quinazolin-6-yl)pyridin-3-yl)-2-methylbenzenesulfonamide] are 6.94 and 7.74.
As for `COc1ncc(-c2ccc3ncnc(N4CCN(C(=O)/C=C/C(C)=O)CC4)c3c2)cc1NS(=O)(=O)c1cc(F)ccc1F` [Example 94, (E)-2,5-difluoro-N-(2-methoxy-5-(4-(4-(4-oxopent-2-enoyl)piperazin-1-yl)quinazolin-6-yl)pyridin-3-yl)benzenesulfonamide], the pIC50 in test [1] (72 h) was 6.90; in test [2] (setting [3]), 7.20.
The matching figures for `COc1ncc(-c2ccc3ncnc(N4CCN(C(=O)/C=C/C(C)=O)CC4)c3c2)cc1NS(=O)(=O)c1c(F)cc(F)cc1F` [Example 99, (E)-2,4,6-trifluoro-N-(2-methoxy-5-(4-(4-(4-oxopent-2-enoyl)piperazin-1-yl)quinazolin-6-yl)pyridin-3-yl)benzenesulfonamide]: 7.14 and 8.02.
The matching figures for `COc1ncc(-c2ccc3ncnc(N4CCC5(CC4)CN(C(=O)/C=C/C(C)=O)C5)c3c2)cc1NS(=O)(=O)c1c(F)cc(F)cc1F` [Example 101, (E)-2,4,6-trifluoro-N-(2-methoxy-5-(4-(2-(4-oxopent-2-enoyl)-2,7-diazaspiro[3.5]nonan-7-yl)quinazolin-6-yl)pyridin-3-yl)benzenesulfonamide]: 7.44 and 7.94.
With `COc1ncc(-c2ccc3ncnc(N4CCN(C(=O)/C=C/C(C)=O)CC4)c3c2)cc1NS(=O)(=O)c1c(F)cncc1F` [Example 102, (E)-3,5-difluoro-N-(2-methoxy-5-(4-(4-(4-oxopent-2-enoyl)piperazin-1-yl)quinazolin-6-yl)pyridin-3-yl)pyridine-4-sulfonamide], the values for the pIC50 in test [1] (72 h) and in test [2] (setting [3]) were 6.04 and 7.14, respectively.
`CCOc1ncc(-c2ccc3ncnc(N4CCN(C(=O)/C=C/C(C)=O)CC4)c3c2)cc1NS(=O)(=O)c1ccc(F)cc1F` [Example 109, (E)-N-(2-ethoxy-5-(4-(4-(4-oxopent-2-enoyl)piperazin-1-yl)quinazolin-6-yl)pyridin-3-yl)-2,4-difluorobenzenesulfonamide]: the figures for the pIC50 in test [1] (72 h) and in test [2] (setting [3]) were 6.96 and 7.20, respectively.
For the molecule `COc1ncc(-c2ccc3ncnc(N4CCN(C(=O)/C=C/C(C)=O)CC4)c3c2)cc1NS(=O)(=O)c1ccc(C)cc1F` [Example 111], the pIC50 was 7.05 in test [1] and 7.80 in test [2] (H358 cells (G12C mutation), 3 days, Table 6).
Regarding `COc1ncc(-c2ccc3ncnc(N4CCN(C(=O)/C=C/C(C)=O)[C@@H](CC#N)C4)c3c2)cc1NS(=O)(=O)c1c(F)cccc1F` [Example 116, (S,E)-N-(5-(4-(3-(cyanomethyl)-4-(4-oxopent-2-enoyl)piperazin-1-yl)quinazolin-6-yl)-2-methoxypyridin-3-yl)-2,6-difluorobenzenesulfonamide], the pIC50 was 6.34 in test [1] (72 h) and 7.02 in test [2] (setting [3]).
